Experimental findings from patent US20090005363A1, “Organic Compounds” (priority 2005, published 2009) are described below.

Each structure is given as a SMILES string. Counter-ions that a name gives are not always drawn.

The experiment deals with mGluR5 (Homo sapiens, UniProt P41594). Kind of experiment: inhibition of the glutamate induced elevation of intracellular Ca2+ concentration. Conditions: for inhibition at 10 µM: read-out: mGluR5 Activity inh. at 10 μM [%].
Sequence of mGluR5 (P41594 21-1180 isoform P41594-2 limits assumed): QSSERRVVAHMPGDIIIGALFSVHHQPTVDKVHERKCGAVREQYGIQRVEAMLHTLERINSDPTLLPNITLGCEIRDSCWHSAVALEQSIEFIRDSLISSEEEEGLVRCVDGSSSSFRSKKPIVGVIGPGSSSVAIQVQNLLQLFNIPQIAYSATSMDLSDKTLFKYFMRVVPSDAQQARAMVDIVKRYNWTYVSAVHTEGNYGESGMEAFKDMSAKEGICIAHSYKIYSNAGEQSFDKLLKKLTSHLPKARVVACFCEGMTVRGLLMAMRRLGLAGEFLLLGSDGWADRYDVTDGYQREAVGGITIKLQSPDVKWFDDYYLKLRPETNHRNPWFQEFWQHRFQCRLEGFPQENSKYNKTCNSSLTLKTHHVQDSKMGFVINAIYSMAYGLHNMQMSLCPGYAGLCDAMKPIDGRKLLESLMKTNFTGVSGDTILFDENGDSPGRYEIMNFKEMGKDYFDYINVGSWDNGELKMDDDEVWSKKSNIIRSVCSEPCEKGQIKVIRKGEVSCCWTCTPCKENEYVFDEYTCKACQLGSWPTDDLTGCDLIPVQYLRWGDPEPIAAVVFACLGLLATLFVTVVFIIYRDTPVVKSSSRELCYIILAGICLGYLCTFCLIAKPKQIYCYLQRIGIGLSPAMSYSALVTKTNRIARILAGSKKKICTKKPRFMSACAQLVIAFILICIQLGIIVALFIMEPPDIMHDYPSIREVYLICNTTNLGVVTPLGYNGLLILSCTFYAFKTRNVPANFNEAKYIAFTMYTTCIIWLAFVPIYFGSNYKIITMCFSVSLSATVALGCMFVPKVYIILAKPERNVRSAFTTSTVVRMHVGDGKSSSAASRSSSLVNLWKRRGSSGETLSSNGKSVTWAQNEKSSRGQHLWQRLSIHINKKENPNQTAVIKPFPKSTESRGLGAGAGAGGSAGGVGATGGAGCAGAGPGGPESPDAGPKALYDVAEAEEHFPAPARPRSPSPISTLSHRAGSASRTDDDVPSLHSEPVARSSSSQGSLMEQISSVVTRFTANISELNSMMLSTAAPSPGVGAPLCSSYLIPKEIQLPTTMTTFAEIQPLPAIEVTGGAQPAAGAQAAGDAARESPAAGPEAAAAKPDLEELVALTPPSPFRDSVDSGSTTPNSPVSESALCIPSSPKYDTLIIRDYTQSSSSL

Text: This can be determined in vitro for example at recombinant human metabotropic glutamate receptors, especially PLC-coupled subtypes thereof such as mGluR5, using different procedures like, for example, measurement of the inhibition of the agonist induced elevation of intracellular Ca^2+ concentration in accordance with L. P. Daggett et al., Neuropharm.

Consider `Cc1ccc(Nc2ncc(C(=O)N3CCCCC3c3cccnc3)cc2Cl)cn1` (centres unmarked) [Compound 4.43, [5-Chloro-6-(6-methyl-pyridin-3-ylamino)-pyridin-3-yl]-(3,4,5,6-tetrahydro-2H-[2,3′]bipyridinyl-1-yl)-methanone], for which the inhibition at 10 µM was determined as 100%.
The same measure, in the same setting: then `CCC1CCCCN1C(=O)c1cnc(Nc2ccc(C)nc2)c(Cl)c1` (centres unmarked) [Compound 4.17, [5-Chloro-6-(6-methyl-pyridin-3-ylamino)-pyridin-3-yl]-(2-ethyl-piperidin-1-yl)-methanone], with 98%; and `CCCC1OCCCCN1C(=O)c1cnc(Nc2ccc(C)nc2)c(Cl)c1` (centres unmarked) [Compound 4.66, [5-Chloro-6-(6-methyl-pyridin-3-ylamino)-pyridin-3-yl]-(2-propyl-[1,3]oxazepan-3-yl)-methanone], with 91%; and `Cc1ccc(Nc2ncc(C(=O)N3CCCC3c3ccc(C)s3)cc2Cl)cn1` (centres unmarked) [Compound 4.75, [5-Chloro-6-(6-methyl-pyridin-3-ylamino)-pyridin-3-yl]-[2-(5-methyl-thiophen-2-yl)-pyrrolidin-1-yl]-methanone], with 96%.
For `CC[C@@H]1CCCCN1C(=O)c1cnc(Nc2ccc(Cl)cc2)c(Cl)c1` [Compound 4.54, [5-Chloro-6-(4-chloro-phenylamino)-pyridin-3-yl]-((R)-2-ethyl-piperidin-1-yl)-methanone], the inhibition at 10 µM was found to be 97%.
For the compound `Cc1ccc(Nc2ncc(C(=O)N3CCCCC3c3ccccn3)cc2Cl)cn1` (centres unmarked) [Compound 4.42, [5-Chloro-6-(6-methyl-pyridin-3-ylamino)-pyridin-3-yl]-(3,4,5,6-tetrahydro-2H-[2,2′]bipyridinyl-1-yl)-methanone], the inhibition at 10 µM came out at 98%.
Same read-out and setting: for `Cc1ccc(Oc2ncc(C(=O)N3CCCCC3)cc2Cl)cn1` [Compound 3.2, [5-Chloro-6-(6-methyl-pyridin-3-yloxy)-pyridin-3-yl]-piperidin-1-yl-methanone] the value was 97%; for `O=C(c1ccc(Nc2ccc(Br)cc2)nc1)N1CCCCC1` [Compound 1.6, [6-(4-Bromo-phenylamino)-pyridin-3-yl]-piperidin-1-yl-methanone], 96%; for `CCC1C(C)CCCN1C(=O)c1cnc(Nc2ccc(C)nc2)c(Cl)c1` (centres unmarked) [Compound 4.40, [5-Chloro-6-(6-methyl-pyridin-3-ylamino)-pyridin-3-yl]-(2-ethyl-3-methyl-piperidin-1-yl)-methanone], 98%.
On the same count and under the same terms, then `Cc1ccc(Nc2ccc(C(=O)N3CCCCC3)cn2)cn1` [Compound 4.1, [6-(6-Methyl-pyridin-3-ylamino)-pyridin-3-yl]-piperidin-1-yl-methanone], with 99%; and `Cc1ccc(Nc2ncc(C(=O)N3CCSC3)cc2Cl)cn1` [Compound 2.14, [5-Chloro-6-(6-methyl-pyridin-3-ylamino)-pyridin-3-yl]-thiazolidin-3-yl-methanone], with 97%.
The same measure, in the same setting: for `CCCC1CCCC(C)N1C(=O)c1cnc(Nc2ccc(C)nc2)c(Cl)c1` (centres unmarked) [Compound 4.50, [5-Chloro-6-(6-methyl-pyridin-3-ylamino)-pyridin-3-yl]-(2-methyl-6-propyl-piperidin-1-yl)-methanone] the value was 98%.
For `CCC=C1CCCN(C(=O)c2cnc(Nc3ccc(C)nc3)c(Cl)c2)C1` [Compound 4.58, [5-Chloro-6-(6-methyl-pyridin-3-ylamino)-pyridin-3-yl]-[3-propylidene-piperidin-1-yl]-methanone], the inhibition at 10 µM amounted to 93%.
As to `CCC[C@H]1CCCCN1C(=O)c1cnc(Nc2ccc(C)nc2)c(Cl)c1` [Compound 4.35, [5-Chloro-6-(6-methyl-pyridin-3-ylamino)-pyridin-3-yl]-((S)-2-propyl-piperidin-1-yl)-methanone], the inhibition at 10 µM was found to be 85%.
As to `Cc1ccc(Nc2ncc(C(=O)N3CCCCC3)cc2C)cn1` [Compound 9.1, [5-Methyl-6-(6-methyl-pyridin-3-ylamino)-pyridin-3-yl]-piperidin-1-yl-methanone], the inhibition at 10 µM worked out at 97%.
In the case of `C/C=C\C1CCCCN1C(=O)c1cnc(Nc2ccc(C)nc2)c(Cl)c1` (centres unmarked) [Compound 4.56, [5-Chloro-6-(6-methyl-pyridin-3-ylamino)-pyridin-3-yl]-[((Z)-2-propenyl)-piperidin-1-yl]-methanone], the “mGluR5 Activity inh. at 10 μM [%]” value (inhibition of glutamate induced elevation of intracellular Ca2+ concentration at 10 μM) came to 97%.
With `CCN(CC)C(=O)c1ccc(Nc2ccc(C)cc2)nc1` [Compound 1.2, N,N-Diethyl-6-p-tolylamino-nicotinamide hydrochloride], the inhibition at 10 µM was determined as 93%.
The same measure, in the same setting: then `Cc1ccc(Nc2ncc(C(=O)N3CCCC[C@H]3C)cc2Cl)cn1` [Compound 4.24, [5-Chloro-6-(6-methyl-pyridin-3-ylamino)-pyridin-3-yl]-((R)-2-methyl-piperidin-1-yl)-methanone], with 92%; and `Cc1ccc(Nc2ncc(C(=O)N3CCCCC3CCCl)cc2Cl)cn1` (centres unmarked) [Compound 4.47, [2-(2-Chloro-ethyl)-piperidin-1-yl]-[5-chloro-6-(6-methyl-pyridin-3-ylamino)-pyridin-3-yl]-methanone], with 97%; and `O=C(c1ccc(Nc2ccc(Cl)cc2)nc1)N1CCCCCC1` [Compound 4.2, Azepan-1-yl-[6-(4-chloro-phenylamino)-pyridin-3-yl]-methanone], with 97%.
Still for that read-out and setting: for `CCCC1CCC(F)CN1C(=O)c1cnc(Nc2ccc(C)nc2)c(Cl)c1` (centres unmarked) [Compound 4.62, [5-Chloro-6-(6-methyl-pyridin-3-ylamino)-pyridin-3-yl]-(5-fluoro-2-propyl-piperidin-1-yl)-methanone] the value was 99%; for `O=C(c1ccc(Nc2ccc(Cl)cn2)nc1)N1CCCCC1` [Compound 2.1, [6-(5-Chloro-pyridin-2-ylamino)-pyridin-3-yl]-piperidin-1-yl-methanone], 60%.
On to `O=C(c1cnc(Nc2ccc(Cl)cc2)nc1)N1CCCCC1` [Compound 5.4, [2-(4-Chloro-phenylamino)-pyrimidin-5-yl]-piperidin-1-yl-methanone], for which the inhibition at 10 µM is 83%.
On to `CCC1CCCN(C(=O)c2cnc(Nc3ccc(C)nc3)c(Cl)c2)C1CC` (centres unmarked) [Compound 4.37, [5-Chloro-6-(6-methyl-pyridin-3-ylamino)-pyridin-3-yl]-(2,3-diethyl-piperidin-1-yl)-methanone], for which the inhibition at 10 µM was 94%.
On the same count and under the same terms, then `CC1CCCN(C(=O)c2cnc(Nc3ccc(Cl)cc3)nc2)C1` (racemic) [Compound 5.5, rac-[2-(4-Chloro-phenylamino)-pyrimidin-5-yl]-(3-methyl-piperidin-1-yl)-methanone], with 96%.
On the same count and under the same terms, for `Cc1ccc(Nc2ncc(C(=O)N3CCSCC3)cc2Cl)cn1` [Compound 2.15, [5-Chloro-6-(6-methyl-pyridin-3-ylamino)-pyridin-3-yl]-thiomorpholin-4-yl-methanone] the value was 100%; for `COCCN(CCOC)C(=O)c1ccc(Nc2ccc(Cl)cc2)nc1` [Compound 1.4, 6-(4-Chloro-phenylamino)-N,N-bis-(2-methoxy-ethyl)-nicotinamide hydrochloride], 37%.
Take `CC1CC(C)CN(C(=O)c2ccc(Nc3ccc(Cl)cc3)nc2)C1` (centres unmarked) [Compound 4.5, [6-(4-Chloro-phenylamino)-pyridin-3-yl]-(3,5-dimethyl-piperidin-1-yl)-methanone]: the inhibition at 10 µM was 88%.
The same measure, in the same setting: for `Cc1ccc(Nc2ncc(C(=O)N3CCCC[C@@H]3C)cc2Cl)cn1` [Compound 4.23, [5-Chloro-6-(6-methyl-pyridin-3-ylamino)-pyridin-3-yl]-((S)-2-methyl-piperidin-1-yl)-methanone] the value was 95%.
`CC1CCCCN1C(=O)c1ccc(Nc2ccc(Cl)cc2)nc1` (centres unmarked) [Compound 1.9, [6-(4-Chloro-phenylamino)-pyridin-3-yl]-(2-methyl-piperidin-1-yl)-methanone hydrochloride]: the inhibition at 10 µM was 97%.
The same measure, in the same setting: for `CCC[C@@H]1CCC[C@@H](CC)N1C(=O)c1cnc(Nc2ccc(C)nc2)c(Cl)c1` [Compound 4.51, [5-Chloro-6-(6-methyl-pyridin-3-ylamino)-pyridin-3-yl]-((2R,6R)-2-ethyl-6-propyl-piperidin-1-yl)-methanone] the value was 96%; for `O=C(c1cnc(Nc2ccc(Cl)cc2)c(Cl)c1)N1CCSCC1` [Compound 2.5, [5-Chloro-6-(4-chloro-phenylamino)-pyridin-3-yl]-thiomorpholin-4-yl-methanone], 97%.
Take `COc1cc(C(=O)N2CCCCCC2)cnc1Nc1ccc(Cl)cc1` [Compound 6.1, Azepan-1-yl-[6-(4-chloro-phenylamino)-5-methoxy-pyridin-3-yl]-methanone]: the inhibition at 10 µM worked out at 97%.
On the same count and under the same terms, for `Cc1ccc(Nc2ncc(C(=O)N3CCCC(C)C3C)cc2Cl)cn1` (centres unmarked) [Compound 4.20, [5-Chloro-6-(6-methyl-pyridin-3-ylamino)-pyridin-3-yl]-(2,3-dimethyl-piperidin-1-yl)-methanone] the value was 100%; for `CCCC1CCCCCN1C(=O)c1cnc(Nc2ccc(C)nc2)c(Cl)c1` (centres unmarked) [Compound 4.76, [5-Chloro-6-(6-methyl-pyridin-3-ylamino)-pyridin-3-yl]-(2-propyl-azepan-1-yl)-methanone], 92%; for `CC1CCCN(C(=O)c2ccc(Nc3ccc(Cl)cc3)nn2)C1` (racemic) [Compound 8.2, rac-[6-(4-Chloro-phenylamino)-pyridazin-3-yl]-(3-methyl-piperidin-1-yl)-methanone], 100%.
On to `COc1cc(C(=O)N2CCCCC2)cnc1Nc1ccc(C)nc1` [Compound 6.4, [5-Methoxy-6-(6-methyl-pyridin-3-ylamino)-pyridin-3-yl]-piperidin-1-yl-methanone], for which the inhibition at 10 µM was determined as 98%.
As for `CCCC1OCCCN1C(=O)c1cnc(Nc2ccc(C)nc2)c(Cl)c1` (centres unmarked) [Compound 4.68, [5-Chloro-6-(6-methyl-pyridin-3-ylamino)-pyridin-3-yl]-(2-propyl-[1,3]oxazinan-3-yl)-methanone], the inhibition at 10 µM is 99%.
